According to publication PMC8042770, “Odorant Receptors for Detecting Flowering Plant Cues Are Functionally Conserved across Moths and Butterflies” (Molecular Biology and Evolution, 2020):

System: H. armigera moths
Assay: Two-choice olfactometer behavioral assay, adult moths
Format: in vivo, Helicoverpa armigera
Settings: females and males, 0.01 mg PAA or 50 μl 0.1% IAC, 10 h
Procedure: In a first step, we tested the attractiveness of PAA and a commercial mix of floral attractants, which takes PAA as its principal component (IAC) ([Cork 2016]; [Whitfield et al. 2019]), to H. armigera moths using a two-choice behavioral assay in a choice box (fig. 6A).
For adults, behavioral experiments were performed in a two-choice olfactometer according to a previous study with some modifications ([Del Socorro et al. 2010]). The olfactometer apparatus consisted of a main-chamber (60 cm × 30 cm × 25 cm) and two-choice subchambers under the main-chamber (20 cm × 15 cm × 25 cm) (fig. 6A). A metal gauze funnel (10 cm diameter) was inserted between the main-chamber and the subchambers. A hole at the bottom of the funnel allowed the moth to enter the subchamber. Clean humidified air flows (15 l/min) entered each subchamber and were exhausted by an exhaust fan. All the experiments were performed during the moth scotophase at 27 ± 1 °C. […] After 10 h, the number of moths in each subchamber was recorded. […] A selection ratio (SR) was calculated using the formula: SR = T/(T + C), where T represents the number of moths that entered the test subchamber and C represents the number of moths that entered the control subchamber. […] A quantity of 0.01 mg PAA was applied. […] The results were statistically analyzed using a χ^2 test.

O=CCc1ccccc1 [Phenylacetaldehyde]
attractiveness to wild-type moths vs solvent: more attractive to H. armigera moths than the solvent control, but the results were not statistically significant
